Test results reported in patent US20140005163A1 (NOVARTIS AG, priority 2010, published 2014).
Values after ≈ are worked out from the molar mass of the structure shown.

Assays:
[1] = Solubility at pH 6.8; format: physicochemical; details: pH 6.8, aqueous buffer, thermodynamic from solid; read-out: solubility
Summary of the method: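 Solubility was measured at pH 6.8 following the cited Zhou et al. (2007) procedure.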

[2] = system: PKB Ser473 phosphorylation in Rat1-myr-HA-p110 alpha cells; test: Reverse protein array assay, PKB Ser473 phosphorylation in Rat1-myr-p110 alpha cells; format: cell-based; details: 0.5 h, pAkt Ser473, 30 minutes compound incubation, read-out: p-PKB IC50
Summary of the method: (§1)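 Cells: Rat1-myr-HA-p110 alpha/beta/delta, seeded ≥20 h. Lysis on ice 10 min; reverse-phase protein array, 4 lysate dilutions; fluorescence read, relative intensity.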

[3] = system: PKB Ser473 phosphorylation in Rat1-myr-HA-p110 beta cells; test: Reverse protein array assay, PKB Ser473 phosphorylation in Rat1-myr-p110 beta cells; format: cell-based; details: 0.5 h, pAkt Ser473, 30 minutes incubation, read-out: p-PKB IC50
Summary of the method: as §1

[4] = system: PKB Ser473 phosphorylation in Rat1-myr-HA-p110 delta cells; test: Reverse protein array assay, PKB Ser473 phosphorylation in Rat1-myr-p110 delta cells; format: cell-based; details: read-out: p-PKB IC50
Summary of the method: as §1

[5] = system: S6 Ribosomal Protein phosphorylation Ser235/236 in TSC1 null mouse embryo fibroblast (MEF) cells; test: Reverse protein array assay, S6 Ribosomal Protein phosphorylation Ser235/236 in TSC1 null MEF cells; format: cell-based; details: 1 h, pS6 ribosomal protein Ser235/236, 60 minutes incubation, read-out: p-S6 IC50
Summary of the method: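 TSC1−/− MEFs, seeded and held ≥20 h at 37 °C/5% CO2, were exposed to 8-step serial compound dilutions (0.02% DMSO final; DMSO vehicle control) for 60 min at 37 °C. Cells were then lysed on ice for 10 min and lysates spotted onto reverse protein array chips.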

solubility [1] | IC50 [2] | IC50 [3] | IC50 [4] | Compound | IC50 [5]
> 459 µg/mL | 129 nM | 108 nM | 335 nM | CCOCc1ncc(-c2ccc3ncc4c(c3c2)n(-c2cn(C)nc2C)c(=O)n4C)cc1OC [Example 196.2, 1-(1,3-Dimethyl-1H-pyrazol-4-yl)-8-(6-ethoxymethyl-5-methoxy-pyridin-3-yl)-3-methyl-1,3-dihydro-imidazo[4,5-c]quinolin-2-one] | 125 nM
10 µg/mL (≈ 25 µM) | 26 nM | 36 nM | 203 nM | CCn1cc(-n2c(=O)n(C)c3cnc4ccc(-c5cncc(N)c5)cc4c32)c(C)n1 [Example 45.2, 8-(5-Amino-pyridin-3-yl)-1-(1-ethyl-3-methyl-1H-pyrazol-4-yl)-3-methyl-1,3-dihydro-imidazo[4,5-c]quinolin-2-one] | 72 nM
3 µg/mL (≈ 6.88 µM) | < 5 nM | < 5 nM | 7 nM | COc1ncc(-c2ccc3ncc4c(c3c2)n(-c2cn(C)nc2Cl)c(=O)n4C)cc1N [Example 89, 8-(5-Amino-6-methoxy-pyridin-3-yl)-1-(3-chloro-1-methyl-1H-pyrazol-4-yl)-3-methyl-1,3-dihydro-imidazo[4,5-c]quinolin-2-one] | < 0.5 nM
12 µg/mL (≈ 28 µM) | 12 nM | 14 nM | 43 nM | COC(=O)c1ccc(-c2ccc3ncc4c(c3c2)n(-c2cn(C)nc2C)c(=O)n4C)cn1 [Example 100, 5-[1-(1,3-Dimethyl-1H-pyrazol-4-yl)-3-methyl-2-oxo-2,3-dihydro-1H-imidazo[4,5-c]quinolin-8-yl]-pyridine-2-carboxylic acid methyl ester] | 4 nM
21 µg/mL (≈ 49.6 µM) | 21 nM | 16 nM | 46 nM | Cc1nn(C)cc1-n1c(=O)n(C)c2cnc3ccc(-c4cnc5ccn(C)c5c4)cc3c21 [Example 129, 1-(1,3-Dimethyl-1H-pyrazol-4-yl)-3-methyl-8-(1-methyl-1H-pyrrolo[3,2-b]pyridin-6-yl)-1,3-dihydro-imidazo[4,5-c]quinolin-2-one] | 1 nM
16 µg/mL (≈ 34.9 µM) | 6 nM | 6 nM | 13 nM | Cn1cc(-n2c(=O)n(C)c3cnc4ccc(-c5cncc(C(C)(C)C#N)c5)cc4c32)c(Cl)n1 [Example 220.3, 2-{5-[1-(3-Chloro-1-methyl-1H-pyrazol-4-yl)-3-methyl-2-oxo-2,3-dihydro-1H-imidazo[4,5-c]quinolin-8-yl]-pyridin-3-yl}-2-methyl-propionitrile] | < 0.5 nM
> 442 µg/mL | 6 nM | 11 nM | 8 nM | CCN(C)c1cc(-c2ccc3ncc4c(c3c2)n(-c2cn(C)nc2C)c(=O)n4C)cnc1C [Example 165, 1-(1,3-Dimethyl-1H-pyrazol-4-yl)-8-[5-(ethyl-methyl-amino)-6-methyl-pyridin-3-yl]-3-methyl-1,3-dihydro-imidazo[4,5-c]quinolin-2-one] | 1 nM
14 µg/mL (≈ 29.8 µM) | 18 nM | 55 nM | 49 nM | CCN1C(=O)OCc2ncc(-c3ccc4ncc5c(c4c3)n(-c3cn(C)nc3C)c(=O)n5C)cc21 [Example 237, 1-(1,3-Dimethyl-1H-pyrazol-4-yl)-8-(1-ethyl-2-oxo-1,4-dihydro-2H-pyrido[3,2-d][1,3]oxazin-7-yl)-3-methyl-1,3-dihydro-imidazo[4,5-c]quinolin-2-one] | 6 nM
28 µg/mL (≈ 65.8 µM) | 18 nM | 21 nM | 25 nM | Cc1nn(C)cc1-n1c(=O)n(C)c2cnc3ccc(-c4cncc(N5CCC5)c4)cc3c21 [Example 179, 8-(5-Azetidin-1-yl-pyridin-3-yl)-1-(1,3-dimethyl-1H-pyrazol-4-yl)-3-methyl-1,3-dihydro-imidazo[4,5-c]quinolin-2-one] | 10 nM
7 µg/mL (≈ 16.3 µM) | 244 nM | 715 nM | – | Cc1nn(C)cc1-n1c(=O)n(C)c2cnc3ccc(-c4ccnc(OC(C)C)c4)cc3c21 [Example 92, 1-(1,3-Dimethyl-1H-pyrazol-4-yl)-8-(2-isopropoxy-pyridin-4-yl)-3-methyl-1,3-dihydro-imidazo[4,5-c]quinolin-2-one] | 75 nM

The remaining lines, values behind:

Compound | solubility [1] | IC50 [2] | IC50 [3] | IC50 [4] | IC50 [5]
COc1ccc(-c2ccc3ncc4c(c3c2)n(-c2cn(C(C)C)nc2C)c(=O)n4C)cc1OC [Example 1.5, 8-(3,4-Dimethoxy-phenyl)-1-(1-isopropyl-3-methyl-1H-pyrazol-4-yl)-3-methyl-1,3-dihydro-imidazo[4,5-c]quinolin-2-one] | 5 µg/mL (≈ 10.9 µM) | 16 nM | 23 nM | 50 nM | < 5 nM
COCc1ccc(-c2ccc3ncc4c(c3c2)n(-c2cn(C)nc2Cl)c(=O)n4C)cn1 [Example 203, 1-(3-Chloro-1-methyl-1H-pyrazol-4-yl)-8-(6-methoxymethyl-pyridin-3-yl)-3-methyl-1,3-dihydro-imidazo[4,5-c]quinolin-2-one] | 12 µg/mL (≈ 27.6 µM) | 10 nM | 13 nM | 26 nM | 22 nM
CNc1ncc(-c2ccc3ncc4c(c3c2)n(-c2c(C)nn(C)c2C)c(=O)n4C)cc1C(F)(F)F [Example 144.1, 3-Methyl-8-(6-methylamino-5-trifluoromethyl-pyridin-3-yl)-1-(1,3,5-trimethyl-1H-pyrazol-4-yl)-1,3-dihydro-imidazo[4,5-c]quinolin-2-one] | > 481 µg/mL | 26 nM | 49 nM | 84 nM | 2 nM
CCn1cc(-n2c(=O)n(C)c3cnc4ccc(-c5ccc(OC)c(OC)c5)cc4c32)c(C)n1 [Example 1.6, 8-(3,4-Dimethoxy-phenyl)-1-(1-ethyl-3-methyl-1H-pyrazol-4-yl)-3-methyl-1,3-dihydro-imidazo[4,5-c]quinolin-2-one] | 65 µg/mL (≈ 147 µM) | 10 nM | 22 nM | 30 nM | < 5 nM
CNc1ncc(-c2ccc3ncc4c(c3c2)n(-c2cn(C(C)C)nc2C)c(=O)n4C)cc1F [Example 141.3, 8-(5-Fluoro-6-methylamino-pyridin-3-yl)-1-(1-isopropyl-3-methyl-1H-pyrazol-4-yl)-3-methyl-1,3-dihydro-imidazo[4,5-c]quinolin-2-one] | 5 µg/mL (≈ 11.2 µM) | 10 nM | 13 nM | 35 nM | 2 nM
Cc1nn(C)c(C)c1-n1c(=O)n(C)c2cnc3ccc(-c4cnc(N)c(CO)c4)cc3c21 [Example 169.2, 8-(6-Amino-5-hydroxymethyl-pyridin-3-yl)-3-methyl-1-(1,3,5-trimethyl-1H-pyrazol-4-yl)-1,3-dihydro-imidazo[4,5-c]quinolin-2-one] | > 429 µg/mL | 460 nM | 586 nM | 869 nM | –
Cc1nn(C)c(C)c1-n1c(=O)n(C)c2cnc3ccc(-c4ccc(CO)nc4)cc3c21 [Example 16.4, 8-(6-Hydroxymethyl-pyridin-3-yl)-3-methyl-1-(1,3,5-trimethyl-1H-pyrazol-4-yl)-1,3-dihydro-imidazo[4,5-c]quinolin-2-one] | > 414 µg/mL | 234 nM | – | 1510 nM | –
COc1ccc(-c2ccc3ncc4c(c3c2)n(-c2cc(C)nn2C)c(=O)n4C)cc1OC [Example 1.4, 8-(3,4-Dimethoxy-phenyl)-1-(2,5-dimethyl-2H-pyrazol-3-yl)-3-methyl-1,3-dihydro-imidazo[4,5-c]quinolin-2-one] | 4 µg/mL (≈ 9.31 µM) | 22 nM | 157 nM | 131 nM | –
Cn1nccc1-n1c(=O)n(C)c2cnc3ccc(-c4ccc(NCCO)nc4)cc3c21 [Example 21.1, 8-[6-(2-Hydroxy-ethylamino)-pyridin-3-yl]-3-methyl-1-(2-methyl-2H-pyrazol-3-yl)-1,3-dihydro-imidazo[4,5-c]quinolin-2-one] | > 415 µg/mL | 191 nM | 173 nM | 906 nM | –
COCc1ccc(-c2ccc3ncc4c(c3c2)n(-c2cn(C(C)C)nc2C)c(=O)n4C)cn1 [Example 105, 1-(1-Isopropyl-3-methyl-1H-pyrazol-4-yl)-8-(6-methoxymethyl-pyridin-3-yl)-3-methyl-1,3-dihydro-imidazo[4,5-c]quinolin-2-one] | > 443 µg/mL | 77 nM | 41 nM | 162 nM | –
Cc1cc(-n2c(=O)n(C)c3cnc4ccc(-c5ccc(N(C)C)nc5)cc4c32)n(C)n1 [Example 4.6, 8-(6-Dimethylamino-pyridin-3-yl)-1-(2,5-dimethyl-2H-pyrazol-3-yl)-3-methyl-1,3-dihydro-imidazo[4,5-c]quinolin-2-one] | 6 µg/mL (≈ 14.5 µM) | 30 nM | 72 nM | 205 nM | –
CNC(=O)c1ccc(-c2ccc3ncc4c(c3c2)n(-c2c(C)nn(C)c2C)c(=O)n4C)cn1 [Example 15.2, 5-[3-Methyl-2-oxo-1-(1,3,5-trimethyl-1H-pyrazo1-4-yl)-2,3-dihydro-1H-imidazo[4,5-c]quinolin-8-yl]-pyridine-2-carboxylic acid methylamide] | 71 µg/mL (≈ 161 µM) | 352 nM | 530 nM | – | –
